US10801071B2, “TGF(β)-MIR200-MIG6 pathway and its use in the treatment of cancer as an indicator of resistance to EGFR inhibitors” (THE JOHNS HOPKINS UNIVERSITY, priority 2014, dated 2020)

Columns and labels:
[1] = tested on: AKT phosphorylation and Mig6 expression; assay: Immunoblot analysis of AKT phosphorylation and Mig6 after TGFβ blockade; assay type: cell-based, human; details: H1703 and JHU028 cells, TGFβ (2 ng/ml) plus SB-431542 (10 μM) for 7 days
Description: (§1) Two erlotinib-resistant cell lines (JHU028 and H1703) were treated with TGFβ (2 ng/ml) alone or in combination with SB-431542 (10 μM) for 7 days. A. Cell lysates were collected and subjected to immunoblot analysis with indicated antibodies. B. Levels of miR200c and miR205 were measured and relative expression is presented as ΔΔCt. C. […] Cell viability was assayed and values were set at 100% for untreated controls.
(§2) Antibodies and immunoblot analysis. Pelleted cells were lysed on ice by adding RIPA lysis buffer (Thermo Scientific, Rockford, Ill.) supplemented with protease and phosphatase inhibitors (Roche, Basel, Switzerland). Protein concentrations were determined by the BCA method and lysates diluted in SDS sample buffer (Bio-Rad, Hercules, Calif.) prior to SDS-PAGE. Anti-Mig6 antibody was a gift from Dr. Ferby (Nature medicine. 2006; 12:568-73). β-actin was obtained from Abcam (Cambridge, Mass.). All other antibodies were obtained from Cell Signaling (Beverly, Mass.). Secondary horseradish peroxidase (HRP)-conjugated antibodies were from KPL (Gaithersburg, Md.) and signals developed using West-Pico chemiluminescence substrate (Thermo Scientific). ImageJ (ver 1.46) software was used to quantify immunoblot signals on exposed films.
Autocrine or paracrine TGF3 signaling is required for the maintenance of the mesenchymal state. […]

[2] = tested on: JHU028 and H1703 erlotinib-resistant cell lines; assay: Cell viability assay, erlotinib sensitivity after TGFβ blockade; assay type: cell-based, human; details: TGFβ plus inhibitor (SB-431542 10 μM or TGFβ RII/Fc 20 ng/ml) 7 days, then 1 μM erlotinib 72 hours
Description: as §1
Cell viability assay. Relative cell viability was determined using an Alamar Blue assay as outlined by the manufacturer (AbDSerotec, Raleigh, N.C.). New media containing 1/10 volume of Alamar Blue reagent was added to the wells and cells were incubated at 37° C. for 1 hour. Fluorescence (545 nm excitation, 590 nm emission wavelengths) was measured using a SpectraMax Plus384 fluorometer (Sunnyvale, Calif.). Cell viability was calculated relative to an untreated culture of cells incubated in parallel.
(§3) Autocrine or paracrine TGF3 signaling is required for the maintenance of the mesenchymal state. Blockage of this signaling can inhibit or reverse EMT by upregulating miR200 and subsequently downregulating ZEB1/2 (28-31). As a corollary to this observation, over-expression of miR-200c restores the sensitivity of resistant NSCLC cells to the anti-EGFR antibody cetuximab. […]

miR200c and miR205 = assay: Quantitative real-time PCR for miR200c and miR205 after TGFβ blockade; assay type: cell-based, human; details: H1703 and JHU028 cells, TGFβ (2 ng/ml) plus SB-431542 (10 μM) for 7 days
Description: as §1
(§4) Quantitative real-time PCR for miRNA. RNA from cultured cells was extracted using the mirVana™ Kit (Ambion, Austin, Tex.). Total RNA from fresh frozen tumors was isolated using the Trizol reagent (Invitrogen, Carlsbad, Calif.). Specific quantitative real-time PCR was carried out using TaqMan MicroRNA Assays for miR200a, miR200b, miR200c, miR205 and control RNU6b (Applied Biosystems, Foster City, Calif.) on a 7900HT detector (Applied Biosystems, Foster City, Calif.).
as §3

[3] = tested on: SCC-S, H358 and H292 erlotinib-sensitive epithelial cell lines; assay: TGFβ-induced EMT, immunoblot of EMT markers and kinases; assay type: cell-based, human
Description: FIGS. 2A-2F depict that increased production of TGFβ induces an EMT-associated kinase switch which promotes erlotinib-resistance of tumor cells. A. Protein lysates were extracted from indicated cell lines Immunoblot analysis was performed with antibodies against E-cadherin, vimentin and β-actin. B. Tumor cell supernatants of 25 cancer cell lines shown in A were collected and differential levels of TGFβ production were analyzed by ELISA. C. […] Cells were collected at different time points and Immunoblot analysis was performed with indicated antibodies. […] Values were set at 100% for untreated controls. […]
Antibodies and immunoblot analysis. […] Protein concentrations were determined by the BCA method and lysates diluted in SDS sample buffer (Bio-Rad, Hercules, Calif.) prior to SDS-PAGE. […] ImageJ (ver 1.46) software was used to quantify immunoblot signals on exposed films.
Increased production of TGFβ induces an EMT-associated kinase switch that promotes erlotinib-resistance of tumor cells. […] To test whether TGFβ can promote this kinase switch, levels of phospho IGFR, PDGFR, FGFR and FAK kinases were assessed in response to treatment of erlotinib-sensitive cells (H358, H292 and SCC-S) with TGFβ1 for 21 days.

Mig6 = assay: Immunoblot analysis of Mig6 after inhibitor exposure in parental and TGFβ-induced H358 cells; assay type: cell-based, human; details: 24 hours exposure
Description: A. Protein lysates were extracted from indicated cell lines Immunoblot analysis was performed with antibodies against E-cadherin, vimentin and β-actin. […] C. […] Cells were collected at different time points and Immunoblot analysis was performed with indicated antibodies. […] Values were set at 100% for untreated controls. […] F. Protein lysates were extracted from H358 cells treated with TGFβ1 or control vehicle for 21 days and immunoblot analysis was performed with antibodies against indicated RTKs. β-actin was used as a loading control.
as §2, with “films. […]” for “films.”

[4] = tested on: directly xenografted human NSCLC tumors; assay: Erlotinib response of directly xenografted primary human tumors in nude mice; assay type: in vivo; details: lung tumors CTG-0167, CTG-0502, CTG-0199 and CTG-0157 with low EGFR and Mig6 expression, Erlotinib 35 mg/kg
From the text: Xenograft generation. […] The animals were maintained in accordance to guidelines of the American Association of Laboratory Animal Care and the research protocol was approved by the Johns Hopkins University Animal Use and Care Committee.
We obtained 18 human NSCLCs, and 27 pancreatic tumors that were directly xenografted into nude mice. No erlotinib-sensitizing mutations in EGFR were detected in any of these tumors and there was no correlation of KRAS mutation with erlotinib response. For all models tested, miR200 levels were measured by quantitative RT-PCR and mRNA levels of Mig6 and EGFR were determined by Affymetrix expression array. […] Supporting this observation, an inverse correlation between miR200c and Mig6 expression levels was noted across the pancreatic models (data not shown). […] Unlike the limited predictive ability of the Mig6/EGFR ratio in such tumors with low EGFR expression, the Mig6(mRNA)/miR200c ratio was still able to correctly identify three out of four of these lung tumors with low EGFR mRNA as erlotinib-resistant. Therefore, the ratio of Mig6 to miR200 was a reliable predictive biomarker of the primary tumors response to EGFR TKIs regardless of their EGFR status.

[5] = tested on: miR200 family members (200a, 200b, 200c and 205); assay: Real-time PCR of miR200 family after exposure to TGFβ; assay type: cell-based, human; details: SCC-S, H358 and H292 cells, exposure for 21 days
Description: RNA was extracted and expression levels of miR200a, miR200b, miR200c and miR205 were quantified by real-time PCR. B. RNA was extracted from four sensitive/resistant cancer cell lines pairs. Levels of miR200a, miR200b, miR200c and miR205 were measured and relative expression is presented as average fold change of each miRNA in erlotinib-sensitive cell lines relatively to that in resistant cells, which was given a value 1. […] Relative quantification of miRNA expression was performed by using RNU6b as an internal control. The results are presented as expression average of each miRNA in erlotinib-sensitive cell lines relatively to that in erlotinib-resistant cells.
as §4
We next examined changes in miR200 levels in erlotinib-sensitive (SCC-S) and erlotinib-resistant (SCC-R) isogenic H&N cell lines.

NC(=O)c1ccc(-c2nc(-c3ccc4c(c3)OCO4)c(-c3ccccn3)[nH]2)cc1 [SB-431542]
AKT phosphorylation [1]: downregulation | Mig6 expression [1]: downregulation | sensitivity of tumor cells to erlotinib [2]: increased the sensitivity of tumor cells to erlotinib | miR200c levels (miR200c and miR205): significant increase | miR205 levels (miR200c and miR205): significant increase

TGFβ1: TGFβ isoform used to treat erlotinib-sensitive cells for 21 days
levels of phospho IGFR, PDGFR, FGFR and FAK kinases ([3]; H358, H292 and SCC-S cells, TGFβ1 for 21 days, compared to untreated counterparts): significantly greater activity

C#Cc1cccc(Nc2ncnc3cc(OCCOC)c(OCCOC)cc23)c1 [erlotinib]
basal expression of Mig6 (Mig6): reduced basal expression of Mig6 | erlotinib response of lung tumor xenografts [4]: erlotinib-resistant

TGFβ
EMT markers (loss of E-cadherin and upregulation of vimentin) ([3]; time course 1-21 days, TGF-β1 or TGF-β3, SCC-S, H358 and H292 cells): complete EMT by day 14 | expression of the miR200 family members (200a, 200b, 200c and 205) [5]: significantly reduced

N#CC(=C(/N)Sc1ccccc1N)/C(C#N)=C(\N)Sc1ccccc1N [U0126]
basal expression of Mig6 (Mig6): reduced basal expression of Mig6
